How the values were obtained:
[1] = test system: Planaria (Dugesia japonica); experiment: Planaria regeneration after surgical injury; type: in vivo
Experimental: Planaria were surgically injured post-ocular and received either vehicle (0.1% ethanol) or 10 nM 4,5-RCTR1 one-hour post-injury and imaged daily for six days. A) Representative images of Planaria regeneration from Day 1-6 post-surgical injury. B) Tissue regeneration indices (μm) from Day 1-6 post-surgically injured Planaria. C) Tissue regeneration rate (TRR, μm/day) is the rate (area of tissue regeneration/days at TRI50) to achieve 50% tissue regeneration after surgical injury. n=6 Planaria per group per day. Data represented as mean±SEM. Unpaired two-tailed Student's t-test. *p<0.05, **p<0.01, ***p<0.001, and ****p<0.0001 versus vehicle. Planaria (Dugesia japonica) were kept in water (Poland Spring, Poland, ME) at 20° c. All animals were starved for 7 days prior to surgery. Planaria were surgically injured post-ocularly and received either vehicle (0.1% ethanol) or 10 nM 4,5-RCTR1 in water one-hour post-injury. Tissue regeneration was monitored daily for six days via a Zeiss Axiovert 40 CFL Microscope (Jena, Germany) equipped with a Lumenera Infinity 3 Camera (Ottawa, Canada) running Image-Pro Plus (Version 7.0.0.591, Media Cybernetics, Rockville, MD, USA). Regenerated tissue was quantified using ImageJ software (NIH). The tissue regeneration index (TRI) normalizes the total area of regenerated tissue by the post-ocular width. The TRI50 is the amount of time it takes to reach 50% of the maximum […]. […] FIGS. 2A, 2B and 2C: Planaria were surgically injured post-ocular and received either vehicle (0.1% ethanol) or 4,5-RCTR1 one-hour post-injury and imaged daily for six days. 2A) Representative images of Planaria regeneration from Day 1-6 post-surgical injury. 2B) Tissue regeneration indices (μm) from Day 1-6 post-surgically injured Planaria. 2C) Tissue regeneration rate (TRR, μm/day) is the rate (area of tissue regeneration/days at TRI50) to achieve 50% tissue regeneration after surgical injury. n=6 Planaria per group per day. Data represented as mean±SEM. Unpaired two-tailed Student's t-test. *p<0.05, **p<0.01, ***p<0.001, and ****p<0.0001 versus vehicle.

[2] = Half-life in the body (statement only, no method); settings: in vivo
[3] = test system: human PBMCs; experiment: Granuloma assay: human PBMCs with E. coli total protein extract-coupled sepharose beads; type: cell-based; settings: single treatment 10 nM at time 0; scoring 0-4 at day 3; versus vehicle
Experimental: FIG. 3: Resolvin (Rv) Peptido-Lipids Delay Human Granuloma Formation. Freshly isolated human PBMCs were incubated with E. coli total protein extract covalently coupled CNBr-activated sepharose beads and received a single treatment of either vehicle (0.1% methanol or ethanol), 10 nM RvD3, 10 nM RCTR1, or 10 nM 4,5-RCTR1 at time 0 and incubated for 6 days. A) Scoring of day 3 granuloma severity post-single treatment with either vehicle (0.1% methanol or ethanol), 10 nM RvD3, 10 nM RCTR1, or 10 nM 4,5-RCTR1. n=3 individual human donors. Mean±SEM. Unpaired two-tailed Student's t-test. **p<0.01, ***p<0.001 versus vehicle. B) Representative images of granuloma formation on day 3 after a single treatment with either vehicle (0.1% methanol or ethanol), 10 nM RvD3, 10 nM RCTR1, or 10 nM 4,5-RCTR1. […]
E. coli (Serotype: 06:K2:H1) was grown overnight in Luria broth in an orbital shaker (400 rpm) at 37° C. […] Supernatant was taken before and after the coupling reaction and measured for protein content by BCA assay (Thermo Fisher Scientific) to determine the efficiency of the reaction. […]
Freshly isolated PBMCs (1×10^6 cells/well) were treated with either vehicle (0.1% ethanol), RvD3 (10 nM), RCTR1 (10 nM) or 4,5-RCTR1 (10 nM) and E. coli total protein lysate-coated CNBr-activated sepharose beads simultaneously in 1 mL complete RPMI-1640. […] Granulomas were scored based on formation progression. […]

half-life in the body [2]: relatively sort half-life
Compound: CC/C=C\C[C@H](O)/C=C/C=C\C\C=C/C=C/C=C/[C@@H](SC[C@H](NC(=O)CC[C@H](N)C(=O)O)C(=O)NCC(=O)O)[C@@H](O)CCC(=O)O [4,5-RCTR1, 5-glutathionyl, 4,17-hydroxy-docosahexaenoic acid]
amount of tissue regenerated ([1]; in vivo): increases the amount of tissue regenerated
time required for tissue regeneration ([1]; in vivo): accelerates the time required for tissue regeneration
regenerative action / planaria regeneration ([1]; surgically injured post-ocular, 10 nM one-hour post-injury, imaged daily for six days, versus vehicle): regenerative action
granuloma formation [3]: significantly delays granuloma formation
